Measurements: patent US6960587B2, “Condensed pyrazindione derivatives as PDE inhibitors” (Lilly Icos LLC, priority 2000, dated 2005)
pIC50: −log10 of the molar value. Counter-ions that a name gives are not always drawn.

Target: T1, recombinant human PDE5 (Homo sapiens, UniProt O76074)
T1 construct: host or cells: Saccharomyces cerevisiae strain BJ2-54 (ATCC 74465)
Assay: PDE5 inhibition, cGMP-PDE one-step assay
Type: biochemical
Conditions: in vitro

Row | pIC50 | Compound
1 | 5.49 | CN1CC(=O)N2[C@H](c3ccc4c(c3)OCO4)c3[nH]cnc3C[C@@H]2C1=O (racemic) [Example 1, (+−, cis)-4-Benzo[1,3]dioxol-5-yl-7-methyl-3,4,6,7,8a,9-hexahydro-1,3,4a,7-tetraaza-cyclopenta[b]naphthalene-5,8-dione hydrochloride]
2 | 6.14 | COc1cc2c(cc1OC)[C@@H](c1ccc3c(c1)OCO3)N1C(=O)CN(C)C(=O)[C@@H]1C2 [Example 10]
